Results as given in ChEMBL document CHEMBL1141815, “KR025, a new cytotoxic compound from Myxococcus fulvus” (J Nat Prod, 1999).
In brackets after ≈: the same amount, converted by molar mass.

Experiments:
Assay type in all cases: functional, cell-based
[1] = tested on: A549; assay: Cytotoxicity against human A549 cells after 72 hrs by SRB assay; conditions: A549, 72 h
[2] = tested on: SK-OV-3; assay: Cytotoxicity against human SKOV3 cells after 72 hrs by SRB assay; conditions: SK-OV-3, 72 h
[3] = tested on: SK-MEL-2; assay: Cytotoxicity against human SK-MEL-2 cells after 72 hrs by SRB assay; conditions: SK-MEL-2, 72 h
[4] = tested on: XF498; assay: Cytotoxicity against human XF498 cells after 72 hrs by SRB assay; conditions: XF498, 72 h
[5] = tested on: HCT-15; assay: Cytotoxicity against human HCT-15 cells after 72 hrs by SRB assay; conditions: HCT-15, 72 h

COC(=O)/C=C(/OC)[C@H](C)[C@H](/C=C/c1csc(-c2cnc([C@@H](C)/C=C/C=C/C(C)C)s2)n1)OC
IC50 [1]: 0.02 ng/mL (≈ 0.0398 nM)
IC50 [2]: 0.04 ng/mL (≈ 0.0796 nM)
IC50 [3]: 8.5 ng/mL (≈ 16.9 nM)
IC50 [4]: 0.03 ng/mL (≈ 0.0597 nM)
IC50 [5]: 0.06 ng/mL (≈ 0.119 nM)

CCCCCC[C@H]1C(=O)O[C@H](C)[C@H](NC(=O)c2cccc(NC=O)c2O)C(=O)O[C@@H](C)[C@@H]1OC(=O)CC(C)C [ANTIMYCIN A]
IC50 [1]: 480 ng/mL (≈ 875 nM)
IC50 [2]: 5500 ng/mL (≈ 10000 nM)
IC50 [3]: 270 ng/mL (≈ 492 nM)
IC50 [4]: 390 ng/mL (≈ 711 nM)
IC50 [5]: 410 ng/mL (≈ 747 nM)

CO/C(=C/C(N)=O)[C@H](C)[C@H](/C=C/c1csc(-c2csc([C@@H](C)/C=C/C=C/C(C)C)n2)n1)OC [MYXOTHIAZOL]
IC50 [1]: 0.01 ng/mL (≈ 0.0205 nM)
IC50 [2]: 0.01 ng/mL (≈ 0.0205 nM)
IC50 [3]: 9.7 ng/mL (≈ 19.9 nM)
IC50 [4]: 0.03 ng/mL (≈ 0.0615 nM)
IC50 [5]: 0.03 ng/mL (≈ 0.0615 nM)
